Laboratory results taken from US9896659B2, “Methods, kits, and compositions for stem cell self-renewal” (STOWERS INSTITUTE FOR MEDICAL RESEARCH, priority 2011, dated 2018).

Key:
[1] = system: LSK Flk2^− cells; assay: Ex vivo culture of sorted LSK Flk2^− cells with GSK-3β and PTEN inhibitors, expansion by FACS; format: cell-based, mouse
Protocol: LSK or LSK Flk2^− cells were sorted into 96-well U-bottom tissue culture plates at 100 cells/well with 200 μl media/well. Cells were incubated at 37° C., 5% O2, 5% CO2 (balance N2) for the indicated number of days. One-half total volume of media (see Table 1, below for the base media) was carefully pipetted from the top and replaced with fresh media every other day.
One hundred LSK Flk2^− cells were sorted from wild-type (C57Bl/6) mice and cultured in (1) media, (2) media+1 μM CHIR99021 (a GSK-3β inhibitor, a gift from Dr. Sheng Ding), (3) media+200 nM Dipotassium Bis-peroxo(picolinato)oxovanadate (BpV(pic), a PTEN inhibitor, available from Calbiochem, Cat. No. 203705), (4) media+1 μM CHIR99021+200 nM BpV(pic), (5) media+200 nM Shikonin (also a PTEN inhibitor, available from Calbiochem, Cat. No. 565850), and (6) media+200 nM Shikonin+1 μM CHIR99021. (FIGS. 3B-C). Cells were cultured as described above. Cells were examined at 17 days of culture (FIG. 3B, original magnification 100×) and 23 days (FIG. 3C, original magnification 40×).
LSK Flk2^− cells at 28 days culture in the indicated media conditions were examined (FIG. 3D, original magnification 200×).
FACS analysis of 28 day LSK Flk2^− cells cultured in media+BpV(pic)+CHIR99021 (FIG. 3E) was performed. Cells were pre-gated on live, lineage negative cells.
Fold expansion of LSK Flk2^− cells after 28 days culture in (1) media, (2) media+BpV(pic), (3) media+CHIR99021, and (4) media+CHIR99021+BpV(pic) were analyzed.
Cells cultured for 9 days in (1) media, (2) media+BpV(pic) (200 nM), (3) media+CHIR99021 (100 nM), and (4) media+CHIR99021 (100 nM)+BpV(pic) (200 nM) were re-sorted for LSK Flk2^− cells, and fold expansion of LSK Flk2^− cells after 9 days culture in the indicated conditions was determined (FIG. 3I).
FACS analysis was performed on 9 day LSK Flk2^− cells cultured in media+BpV(pic) (200 nM)+CHIR99021 (100 nM) (FIG. 3J). Cells were pre-gated on live, lineage negative cells.

[2] = system: lethally irradiated (10 Gy) CD45.1^+ recipient mice; assay: Transplantation of cultured sorted LSK Flk2^− cells into lethally irradiated recipients, donor engraftment; format: in vivo, mouse; conditions: 28-day cultures, 1000 re-sorted LSK Flk2^− cells + 2×10^5 competitor cells; peripheral blood 4 weeks post-transplant
Excerpt: Cells were harvested from the wells prior to transplantation by pipetting up and down several times before transferring to a fresh tube. Residual was then collected by adding more media and repeating. Cells were washed in DMEM (Invitrogen, Cat. No. 31053) without phenol red and added to the appropriate number of whole bone marrow rescue cells from a congenic donor (for 200,000 rescue cells+1,000 re-sorted LSK Flk2^− cells (FIGS. 3F-H) or the non-adherent product of 10 days culture of 100 LSK Flk2^− cultured cells (FIGS. 3I-K) per mouse as indicated). […]
Repopulation was measured at 4 weeks post-transplant by collection of peripheral blood, red blood cell lysis, and staining of CD45.1 (recipient) compared to CD45.2 (donor) engraftment using antibodies purchased from eBiosciences (FITC conjugated CD45.2 (Cat. No. 11-0454-85) and PE-Cy5 conjugated CD45.1 (Cat. No. 15-0453-82)). […] Multi-lineage reconstitution was determined by CD3, B220 (for lymphoid) and Gr1, Mac-1 (for myeloid), as described above.
Cells cultured for 28 days in (1) media, (2) media+BpV(pic), (3) media+CHIR99021 and (4) media+CHIR99021 (1 μM)+BpV(pic) (200 nM) were re-sorted for LSK Flk2^− cells. […] At 4 weeks post-transplant, peripheral blood was analyzed for donor (FIG. 3G) and multi-lineage (FIG. 3H) engraftment. […]

[3] = system: LSK Flk2^− cells; assay: 14-day ex vivo expansion of bone marrow MNCs in ST media with or without GSK3β inhibitor, FACS; format: cell-based, mouse; conditions: 14-day culture of MNCs; average; FIG. 26B (250 nM CHIR99021)
[4] = system: lethally irradiated recipients; assay: Serial transplantation of cultured MNCs without rescue/competitor cells; format: in vivo, mouse
Protocol: FIGS. 27A-C show ex vivo expansion of normal, long-term repopulating HSC. MNCs containing a known quantity of LSK Flk2^− cells were cultured for 14 days with and without CHIR99021. The cultured progeny of MNCs containing a pre-culture dosage of 0.1, 0.3 or 1.0 LSK Flk2^− cells were transplanted into lethally irradiated recipients along with 1×10^5 rescue/competitor cells (n=10 for each of 6 groups). Peripheral blood was analyzed at 16 weeks post-transplant and competitive repopulating unit (CRU) frequency was determined using L-Calc software (Stem Cell Technologies, Inc.) based on Poisson statistics (Zhang, C. C. & Lodish, H. F. Murine hematopoietic stem cells change their surface phenotype during ex vivo expansion. Blood, Vol. 105, pages 4314-4320 (2005); Miller, C. L. & Eaves, C. J. Expansion in vitro of adult murine hematopoietic stem cells with transplantable lympho-myeloid reconstituting ability. Proceedings of the National Academy of Sciences of the United States of America, Vol. 94, pages 13648-13653 (1997)). […] Fresh MNCs containing 5 or 500 LSK Flk2^− cells, or the progeny of MNCs containing 5 LSK Flk2^− cells cultured for 14 days with and without CHIR99021, were transplanted into lethally irradiated recipients without rescue/competitor cells. At 16-17 weeks post-transplant, bone marrow isolated from 1° recipients was transplanted into 2° recipients and, at 16-17 weeks post-secondary transplant, from 2° into 3° recipients at a dosage of 1×10^6 cells per mouse. Peripheral blood was analyzed for percent donor repopulation at 16 weeks post-1°, 2°, and 3° transplant (upper panels) and percent mature donor-derived B, T and myeloid cells (lower panels).
For competitive repopulation assays, 1×10^5 bone marrow cells congenic with the host (CD45.1^+) were included per mouse. 100 μl of cultured cells or cells freshly isolated and quantified in the same manner were transplanted into lethally irradiated (10 Grays, single dose) Protein tyrosine phosphatase, receptor type, C (Ptprc or CD45.1) recipient mice through the tail vein using an insulin syringe (29 gauge). Mice were placed on Batril® water (Bayer Healthcare, LLC, Shawnee Mission, Kans.) 3 days prior to irradiation which continued for 2 weeks post-irradiation. Repopulation was measured every 4 weeks post-transplant by collection of peripheral blood, red blood cell lysis and staining of CD45.1 (recipient) vs. CD45.2 (donor) engraftment. […] Multi-lineage reconstitution was determined by CD3, B220 (for T and B lymphoid, respectively) and Gr1, Mac-1 (for myeloid) gating on donor (CD45.2^+) cells. […] Bone marrow cells were counted and transplanted as above at a dosage of 1×10^6 per mouse. […]

## Cc1c[nH]c(-c2cnc(NCCNc3ccc(C#N)cn3)nc2-c2ccc(Cl)cc2Cl)n1 [CHIR99021]
[1]; 17 and 23 days culture, 1 μM CHIR99021, 200 nM BpV(pic)
  Expansion of LSK cells compared to control (photographs): greater expansion of LSK cells
[1]; 28 days culture
  Expansion of LSK Flk2^− cells compared to media without inhibitor: significant expansion
[2]
  Mice showing >1% engraftment: 4/8
[3]
  Increase in total number of LSK Flk2^− cells: 93 fold
[4]; 16 weeks post-secondary transplantation, 5 versus 500 putative HSCs
  Dose of fresh, unexpanded cells giving equivalent long-term repopulation: 100 fold
[4]; 16 weeks post-tertiary transplant, versus 100× uncultured cells
  Repopulation of tertiary recipients: equivalent levels of repopulation with no statistical difference between the two groups
[4]; Kaplan-Meier, FIG. 27C
  Survival of tertiary recipients: survival rates similar to tertiary recipients of 100× uncultured cells
[4]; secondary lethally-irradiated recipients, 1×10^6 bone marrow cells
  Donor reconstitution at 16 weeks post-secondary transplant: 90.6±4.8%
